In patent US5563134A (Sandoz Ltd., priority 1993, dated 1996):
Where two headings read alike, the source gives them in different places. One block for each compound: values may come before it.

Key:
[1] = test system: glutathione and protein from human myeloperoxidase and human leucocytes; assay: Reactive species formation and covalent binding of clozapine metabolites, tests as for clozapine
[2] = test system: glutathione and protein from human myeloperoxidase and human leucocytes
[3] = test system: human myeloperoxidase or horseradish peroxidase; assay: HPLC with on-line radioactivity detection of tritium-labeled clozapine incubated with peroxidase and hydrogen peroxide; type: biochemical
Description: For HPLC a reversed phase column (Supelco Inc., Bellefonte Pa. USA LC-18-DB, 5 μm, 250×4.6 mm) was used. The mobile phase consisted of (NH4)2 CO3 buffer pH 8.5 (solvent A) and acetonitrile (solvent B). The proportion of solvent B was 0% for 5 minutes and was increased to reach 20% at 10 minutes, 24% at 60 minutes and 80% at 100 minutes. […] Instead two radioactive peaks eluting at 28 and 53 minutes from the HPLC appeared.

horseradish peroxidase [4] = target: T1, horseradish peroxidase (Armoracia rusticana, UniProt P00433); assay: Electron spin resonance spectroscopy of radicals in a peroxidase system; conditions: for Effect on ascorbyl radical concentration (ESR): 1 mM added to ascorbate/clozapine/horseradish peroxidase/hydrogen peroxide system
T1 sequence (P00433 31-338 limits assumed): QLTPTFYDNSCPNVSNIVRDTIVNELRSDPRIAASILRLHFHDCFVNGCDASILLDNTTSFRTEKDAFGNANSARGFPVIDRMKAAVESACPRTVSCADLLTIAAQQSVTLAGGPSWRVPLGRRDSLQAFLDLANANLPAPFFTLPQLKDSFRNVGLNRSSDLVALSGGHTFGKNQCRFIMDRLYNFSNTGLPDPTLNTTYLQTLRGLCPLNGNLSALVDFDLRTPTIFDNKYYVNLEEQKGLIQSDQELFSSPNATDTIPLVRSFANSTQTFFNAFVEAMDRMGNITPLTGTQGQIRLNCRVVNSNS

[5] = target: horseradish peroxidase (or human myeloperoxidase) (Homo sapiens, UniProt P05164); type: biochemical; conditions: clozapine 100 μM, human myeloperoxidase 10 units, NADPH 10 mM, in place of horseradish peroxidase and GSH
Description: (§1) Oxygen consumption has also been observed when horseradish peroxidase was replaced with human myeloperoxidase (10 units) and GSH with NADPH (10 mM).

[6] = test system: horseradish peroxidase (or human myeloperoxidase); type: biochemical
Description: as §1

[7] = test system: patients refractory and/or intolerant to classical antipsychotic drug treatment; conditions: cited from earlier work
horseradish peroxidase [8] = target: T1, horseradish peroxidase; assay: Clozapine metabolism by peroxidase, disappearance of UV absorption at 290 nm; type: biochemical
[9] = test system: granulocytes/polymorphonuclear leucocytes (PMN's); assay: Covalent binding of radiolabeled clozapine to isolated PMN's; type: cell-based, human
Description: 4) In another test heparinized peripheral blood was obtained from normal, healthy male volunteers, and granulocytes/polymorphonuclear leucocytes (PMN's) were isolated within 1-2 hours using an isolation kit (United Technologies Packard, Los Alamos, USA). PMN's were suspended in RPMI 1640 (Gibco, Basel, Switzerland) medium and adjusted to about 4×10^6 cells/ml before fetal calf serum was added (10% v/v).

horseradish peroxidase (or human myeloperoxidase) (Homo sapiens, UniProt P05164), sequence (P05164 165-278 limits assumed): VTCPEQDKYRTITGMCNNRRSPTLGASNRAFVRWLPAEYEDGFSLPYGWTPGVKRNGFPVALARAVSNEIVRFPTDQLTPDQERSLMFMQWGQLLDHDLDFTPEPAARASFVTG
horseradish peroxidase (or human myeloperoxidase) (Homo sapiens, UniProt P05164), sequence (P05164 279-745 limits assumed): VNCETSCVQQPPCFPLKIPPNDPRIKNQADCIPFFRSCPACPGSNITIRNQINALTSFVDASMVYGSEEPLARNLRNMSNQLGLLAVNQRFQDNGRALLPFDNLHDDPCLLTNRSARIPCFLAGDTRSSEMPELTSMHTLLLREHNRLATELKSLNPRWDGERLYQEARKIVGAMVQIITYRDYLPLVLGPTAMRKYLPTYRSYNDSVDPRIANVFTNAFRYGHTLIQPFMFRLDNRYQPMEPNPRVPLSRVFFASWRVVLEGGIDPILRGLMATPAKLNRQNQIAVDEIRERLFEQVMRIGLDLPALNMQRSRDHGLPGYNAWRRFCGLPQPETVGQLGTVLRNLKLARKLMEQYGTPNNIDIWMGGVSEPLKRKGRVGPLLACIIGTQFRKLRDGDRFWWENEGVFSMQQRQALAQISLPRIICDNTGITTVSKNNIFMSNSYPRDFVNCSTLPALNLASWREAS

Structure (SMILES): CN1CCN(C2=Nc3cc(O)ccc3Nc3ccccc32)CC1 [8-hydroxy-11-(4-methyl-1-piperazinyl)-5H-dibenzo[b,e][1,4]diazepine]
Formation of reactive species ([1]; tests as for clozapine, worded "can also be shown"): form reactive species such as free radicals

Structure (SMILES): CN1CCN(C2=Nc3cc(Cl)c(O)cc3Nc3ccccc32)CC1 [7-hydroxy-8-chloro-11-(4-methyl-1-piperazinyl)-5H-dibenzo[b,e][1,4]diazepine]
Formation of reactive species [2]: form reactive species such as free radicals

Structure (SMILES): CSc1ccc2c(c1)N=C(N1CCNCC1)c1ccccc1N2 [8-methylthio-11-(1-piperazinyl)-5H-dibenzo-[b,e][1,4]diazepine]
Formation of reactive species [2]: form reactive species such as free radicals

Structure (SMILES): CN1CCN(C2=Nc3cc(Cl)ccc3Nc3ccccc32)CC1 [clozapine, 8-chloro-11-(4-methyl-1-piperazinyl)-5H-dibenzo[b,e][1,4]diazepine]
Covalent binding of clozapine-derived material to the enzyme (coelution of radioactivity with enzymatic protein) ([3]; clozapine 100 μM, enzyme and hydrogen peroxide present): Covalent binding of clozapine-derived material to the enzyme was indicated | Increase in steady-state concentration of the ascorbyl radical when clozapine is present (horseradish peroxidase [4]; 100 μM sodium ascorbate, 100 μM clozapine, horseradish peroxidase 8.3 μg/ml, hydrogen peroxide 50 μM, pH 7.4): over two fold | Glutathionyl thiyl radicals by ESR (DMPO trapping) (horseradish peroxidase [4]; absence of sodium ascorbate, DMPO 100 mM): detected | Oxygen consumption [5]: observed | Oxygen consumption as indicator of radical formation ([6]; clozapine 100 μM, horseradish peroxidase 5 μg/ml, GSH 10 mM, pH 7.4): indicates an initial clozapine radical formation | Antipsychotic efficacy compared with standard neuroleptics ([7]; clinical studies): superior | Patients refractory to standard neuroleptics who significantly improved ([7]; clozapine treatment): approximately 30% | Risk of granulocytopenia and agranulocytosis ([7]; clozapine treatment): apparent increased risk | Clozapine metabolism by peroxidases (disappearance of UV absorption at 290 nm) (horseradish peroxidase [8]; clozapine 100 μM, 1-5 μg/ml horseradish peroxidase, 50 μM hydrogen peroxide, pH 7.4): demonstrated

Structure (SMILES): Oc1ccc2c(c1)N=C(N1CCNCC1)c1ccccc1N2 [8-hydroxy-11-(1-piperazinyl)-5H-dibenzo[b,e][1,4]diazepine]
Formation of reactive species [2]: form reactive species such as free radicals

Structure (SMILES): CSc1ccc2c(c1)N=C(N1CCN(C)CC1)c1ccccc1N2 [8-methylthio-11-(4-methyl-1-piperazinyl)-5H-dibenzo[b,e][1,4]diazepine]
Formation of reactive species [2]: form reactive species such as free radicals

Structure (SMILES): O=C1O[C@H]([C@@H](O)CO)C(O)=C1O [ascorbic acid, L-ascorbic acid]
Effect on covalent binding of clozapine and its metabolites ([1]; intact human cells, radical scavenger): prevented

Structure (SMILES): C[N+]1([O-])CCN(C2=Nc3cc(Cl)ccc3Nc3ccccc32)CC1 [8-chloro-11-(4-methyl-4-oxo-1-piperazinyl)-5H-dibenzo[b,e][1,4]diazepine]
Formation of reactive species [2]: form reactive species such as free radicals

Structure (SMILES): Clc1ccc2c(c1)N=C(N1CCNCC1)c1ccccc1N2 [8-chloro-11-(1-piperazinyl)-5H-dibenzo[b,e][1,4]diazepine]
Formation of reactive species [2]: form reactive species such as free radicals

Effect on ascorbyl radical concentration (ESR) (horseradish peroxidase [4]): almost absent
Structure (SMILES): NC(=O)C1=CN([C@@H]2O[C@H](COP(=O)(O)OP(=O)(O)OC[C@H]3O[C@@H](n4cnc5c(N)ncnc54)[C@H](OP(=O)(O)O)[C@@H]3O)[C@@H](O)[C@H]2O)C=CC1 [NADPH]

Structure (SMILES): N[C@@H](CCC(=O)N[C@@H](CS)C(=O)NCC(=O)O)C(=O)O [glutathione]
Effect on covalent binding to the enzymatic protein and metabolite formation ([3]; GSH 10 mM, pH 7.4, added to standard incubation): reduced but to a lesser extent | Effect on ascorbyl radical concentration (ESR) (horseradish peroxidase [4]): only marginally affected

Structure (SMILES): O=C1O[C@H]([C@@H](O)CO)C([O-])=C1O.[Na+] [sodium ascorbate]
Effect on clozapine metabolism (metabolite formation) ([3]; sodium ascorbate 0.7 mM): completely reversed | Effect on covalent binding of clozapine to enzymatic protein ([3]; sodium ascorbate 0.7 mM): no radioactivity coeluted with the enzymatic protein | Effect on oxygen consumption i.e. initial clozapine radical formation ([6]; sodium ascorbate 0.7 mM): prevented | Effect on metabolism of clozapine (UV signal changes) (horseradish peroxidase [8]; sodium ascorbate 0.7 mM added to the incubation): reversed | Effect on clozapine binding to PMN's ([9]; 5 mM sodium ascorbate, incubations containing opsonized zymosan): reduction of clozapine binding to PMN's | Effect on covalent binding of clozapine to PMN's ([9]; radiolabeled clozapine and sodium ascorbate incubated together with PMN's, worded "may also be shown"): reduction of covalent binding
